Results taken from US7138361B2, “Herbicidal heterocycles” (E. I. du Pont de Nemours and Company, priority 2000, dated 2006).

Assays:
Assay type in all cases: in vivo
[1] = system: Surinam grass (Brachiaria decumbens); assay: Test B preemergence
Method in brief: (§1)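 Pre: seeded pots sprayed, chemical in non-phytotoxic solvent/surfactant mix. Post: plants 2–18 cm, 1–4 leaf, same formulation. Greenhouse 13–15 d; visual % control vs untreated, 0–100 scale.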

[2] = system: barnyardgrass (Echinochloa crus-galli); assay: Test B preemergence
Method in brief: as §1

[3] = system: cocklebur (Xanthium strumarium); assay: Test B preemergence
Method in brief: as §1

[4] = system: corn (Zea mays); assay: Test B preemergence
Method in brief: as §1

[5] = system: crabgrass (Digitaria sanguinalis); assay: Test B preemergence
Method in brief: as §1

[6] = system: giant foxtail (Setaria faberii); assay: Test B preemergence
Method in brief: as §1

[7] = system: lambsquarters (Chenopodium album); assay: Test B preemergence
Method in brief: as §1

[8] = system: morning glory (Ipomoea hederacea); assay: Test B preemergence
Method in brief: as §1

[9] = system: pigweed (Amaranthus retroflexus); assay: Test B preemergence
Method in brief: as §1

[10] = system: rice (Oryza saliva); assay: Test B preemergence
Method in brief: as §1

[11] = system: velvetleaf (Abutilon theophrasti); assay: Test B preemergence
Method in brief: as §1

[12] = system: Nightshade; assay: Test C preemergence
[13] = system: Surinam grass (Brachiaria decumbens); assay: Test C preemergence; details: for Plant response rating (0 to 100), Surinam grass: Rate 500 g/ha, visual evaluation after 12 to 14 days
Method in brief: (§2)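 Seeds are planted and treated before emergence; for the postemergence test, plants at 1- to 4-leaf stage (2–18 cm) receive the same formulation, a solvent blend containing surfactant. Plants stay in the greenhouse 12–14 days, then response is scored visually from 0 (none) to 100 (complete control).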

[14] = system: cocklebur (Xanthium strumarium); assay: Test C preemergence; details: for Plant response rating (0 to 100), Cocklebur: Rate 500 g/ha, visual evaluation after 12 to 14 days
Method in brief: as §2

[15] = system: common ragweed (Ambrosia elatior); assay: Test C preemergence; details: for Plant response rating (0 to 100), Ragweed, Common: Rate 500 g/ha, visual evaluation after 12 to 14 days
Method in brief: as §2

[16] = system: crabgrass (Digitaria sanguinalis); assay: Test C preemergence; details: for Plant response rating (0 to 100), Crabgrass: Rate 500 g/ha, visual evaluation after 12 to 14 days
Method in brief: as §2

[17] = system: goosegrass (Eleusine indica); assay: Test C preemergence; details: for Plant response rating (0 to 100), Goosegrass: Rate 500 g/ha, visual evaluation after 12 to 14 days
Method in brief: as §2

[18] = system: lambsquarters (Chenopodium album); assay: Test C preemergence; details: for Plant response rating (0 to 100), Lambsquarters: Rate 500 g/ha, visual evaluation after 12 to 14 days
Method in brief: as §2

[19] = system: pigweed (Amaranthus retroflexus); assay: Test C preemergence; details: for Plant response rating (0 to 100), Pigweed: Rate 500 g/ha, visual evaluation after 12 to 14 days
Method in brief: as §2

[20] = system: soybean (Glycine max); assay: Test C preemergence; details: for Plant response rating (0 to 100), Soybean: Rate 500 g/ha, visual evaluation after 12 to 14 days
Method in brief: as §2

[21] = system: woolly cupgrass (Eriochloa villosa); assay: Test C preemergence; details: for Plant response rating (0 to 100), Cupgrass, Woolly: Rate 500 g/ha, visual evaluation after 12 to 14 days
Method in brief: as §2

[22] = Preemergence, Rate 500 g/ha, scale 0 to 100, 0 no effect, 100 complete control
[23] = preemergence, Rate 125 g/ha, scale of 0 to 100 where 0 is no effect and 100 is complete control, 13 to 15 days
[24] = Rate 125 g/ha, scale 0 to 100, 0 no effect, 100 complete control
[25] = Rate 250 g/ha, scale 0 to 100, 0 no effect, 100 complete control
[26] = preemergence, Rate 62 g/ha, scale 0 to 100
[27] = preemergence, Rate 250 g/ha, scale 0 to 100, 0 no effect, 100 complete control

Cc1ccc(N2CCC(n3ccc(C(C)(C)C)n3)C2=O)cc1I (centres unmarked) [Compound 122]
30: Plant response rating, Foxtail, Giant [6, 22] | Plant response rating, Nightshade [12, 25]
100: Plant response rating, Barnyardgrass [2, 22] | Plant response rating, Crabgrass [5, 22] | Plant response rating, Crabgrass [5, 23] | Plant response rating, Lambsquarters [7, 22] | Plant response rating, Lambsquarters [7, 23] | Plant response rating, Pigweed [9, 22] | Plant response rating, Pigweed [9, 23] | Plant response rating (0 to 100), Ragweed, Common ([15]; preemergence) | Plant response rating, Crabgrass [16, 24] | Plant response rating (0 to 100), Crabgrass ([16]; preemergence) | Plant response rating, Crabgrass [16, 27] | Plant response rating, Goosegrass [17, 24] | Plant response rating (0 to 100), Goosegrass ([17]; preemergence) | Plant response rating, Goosegrass [17, 27] | Plant response rating, Lambsquarters [18, 24] | Plant response rating, Lambsquarters [18, 26] | Plant response rating (0 to 100), Lambsquarters ([18]; preemergence) | Plant response rating, Lambsquarters [18, 27] | Plant response rating (0 to 100), Pigweed ([19]; preemergence) | Plant response rating (0 to 100), Cupgrass, Woolly ([21]; preemergence) | Plant response rating, Cupgrass, Woolly [21, 27]
70: Plant response rating, Surinam grass [1, 22]
20: Plant response rating, Foxtail, Giant [6, 23] | Plant response rating, Surinam grass [13, 27] | Plant response rating, Ragweed, Common [15, 27] | Plant response rating, Pigweed [19, 24] | Plant response rating, Pigweed [19, 27] | Plant response rating, Cupgrass, Woolly [21, 24]
60: Plant response rating (0 to 100), Surinam grass ([13]; preemergence)
90: Plant response rating, Crabgrass [16, 26] | Plant response rating, Goosegrass [17, 26]
50: Plant response rating, Surinam grass [1, 23]
0: Plant response rating, Barnyardgrass [2, 23] | Plant response rating, Cocklebur [3, 22] | Plant response rating, Cocklebur [3, 23] | Plant response rating, Corn [4, 22] | Plant response rating, Corn [4, 23] | Plant response rating, Morningglory [8, 22] | Plant response rating, Morningglory [8, 23] | Plant response rating, Rice [10, 22] | Plant response rating, Rice [10, 23] | Plant response rating, Velvetleaf [11, 22] | Plant response rating, Velvetleaf [11, 23] | Plant response rating, Nightshade ([12]; Rate 62 g/ha, scale 0 to 100) | Plant response rating, Nightshade [12, 24] | Plant response rating, Surinam grass [13, 24] | Plant response rating, Surinam grass [13, 26] | Plant response rating, Cocklebur [14, 24] | Plant response rating, Cocklebur [14, 26] | Plant response rating (0 to 100), Cocklebur ([14]; preemergence) | Plant response rating, Cocklebur [14, 27] | Plant response rating, Ragweed, Common [15, 24] | Plant response rating, Ragweed, Common [15, 26] | Plant response rating, Pigweed [19, 26] | Plant response rating, Soybean [20, 24] | Plant response rating, Soybean [20, 26] | Plant response rating (0 to 100), Soybean ([20]; preemergence) | Plant response rating, Soybean [20, 27] | Plant response rating, Cupgrass, Woolly [21, 26]

CCCC(C)c1ccn(C2OCN(c3cccc(C(F)(F)F)c3)C2=O)n1 (centres unmarked) [Compound 89]
40: Plant response rating, Cupgrass, Woolly [21, 27]
10: Plant response rating, Rice [10, 22] | Plant response rating, Surinam grass [13, 24] | Plant response rating (0 to 100), Cocklebur ([14]; preemergence) | Plant response rating, Cocklebur [14, 27]
80: Plant response rating, Barnyardgrass [2, 23] | Plant response rating, Lambsquarters [18, 26]
20: Plant response rating, Crabgrass [16, 26]
0: Plant response rating, Cocklebur [3, 22] | Plant response rating, Cocklebur [3, 23] | Plant response rating, Corn [4, 22] | Plant response rating, Corn [4, 23] | Plant response rating, Morningglory [8, 22] | Plant response rating, Morningglory [8, 23] | Plant response rating, Rice [10, 23] | Plant response rating, Velvetleaf [11, 22] | Plant response rating, Velvetleaf [11, 23] | Plant response rating, Nightshade ([12]; Rate 62 g/ha, scale 0 to 100) | Plant response rating, Nightshade [12, 24] | Plant response rating, Nightshade [12, 25] | Plant response rating, Surinam grass [13, 26] | Plant response rating, Cocklebur [14, 24] | Plant response rating, Cocklebur [14, 26] | Plant response rating, Ragweed, Common [15, 24] | Plant response rating, Ragweed, Common [15, 26] | Plant response rating (0 to 100), Ragweed, Common ([15]; preemergence) | Plant response rating, Ragweed, Common [15, 27] | Plant response rating, Pigweed [19, 24] | Plant response rating, Pigweed [19, 26] | Plant response rating, Soybean [20, 24] | Plant response rating, Soybean [20, 26] | Plant response rating, Soybean [20, 27] | Plant response rating, Cupgrass, Woolly [21, 24] | Plant response rating, Cupgrass, Woolly [21, 26]
30: Plant response rating, Surinam grass [13, 27] | Plant response rating (0 to 100), Soybean ([20]; preemergence)
70: Plant response rating (0 to 100), Cupgrass, Woolly ([21]; preemergence)
90: Plant response rating, Crabgrass [5, 23] | Plant response rating, Foxtail, Giant [6, 23] | Plant response rating, Pigweed [9, 23]
60: Plant response rating, Surinam grass [1, 23]
95: Plant response rating, Goosegrass [17, 26]
50: Plant response rating, Pigweed [19, 27]
100: Plant response rating, Surinam grass [1, 22] | Plant response rating, Barnyardgrass [2, 22] | Plant response rating, Crabgrass [5, 22] | Plant response rating, Foxtail, Giant [6, 22] | Plant response rating, Lambsquarters [7, 22] | Plant response rating, Lambsquarters [7, 23] | Plant response rating, Pigweed [9, 22] | Plant response rating, Crabgrass [16, 24] | Plant response rating (0 to 100), Crabgrass ([16]; preemergence) | Plant response rating, Crabgrass [16, 27] | Plant response rating, Goosegrass [17, 24] | Plant response rating (0 to 100), Goosegrass ([17]; preemergence) | Plant response rating, Goosegrass [17, 27] | Plant response rating, Lambsquarters [18, 24] | Plant response rating (0 to 100), Lambsquarters ([18]; preemergence) | Plant response rating, Lambsquarters [18, 27] | Plant response rating (0 to 100), Pigweed ([19]; preemergence)
65: Plant response rating (0 to 100), Surinam grass ([13]; preemergence)
